{"source": "BindingDB's records for patent US11814384", "about": "(Kinnate Biopharma, 2023)", "data": [{"target": "Serine/threonine-protein kinase B-raf (Homo sapiens, UniProt P15056)", "sequence (P15056 whole entry)": "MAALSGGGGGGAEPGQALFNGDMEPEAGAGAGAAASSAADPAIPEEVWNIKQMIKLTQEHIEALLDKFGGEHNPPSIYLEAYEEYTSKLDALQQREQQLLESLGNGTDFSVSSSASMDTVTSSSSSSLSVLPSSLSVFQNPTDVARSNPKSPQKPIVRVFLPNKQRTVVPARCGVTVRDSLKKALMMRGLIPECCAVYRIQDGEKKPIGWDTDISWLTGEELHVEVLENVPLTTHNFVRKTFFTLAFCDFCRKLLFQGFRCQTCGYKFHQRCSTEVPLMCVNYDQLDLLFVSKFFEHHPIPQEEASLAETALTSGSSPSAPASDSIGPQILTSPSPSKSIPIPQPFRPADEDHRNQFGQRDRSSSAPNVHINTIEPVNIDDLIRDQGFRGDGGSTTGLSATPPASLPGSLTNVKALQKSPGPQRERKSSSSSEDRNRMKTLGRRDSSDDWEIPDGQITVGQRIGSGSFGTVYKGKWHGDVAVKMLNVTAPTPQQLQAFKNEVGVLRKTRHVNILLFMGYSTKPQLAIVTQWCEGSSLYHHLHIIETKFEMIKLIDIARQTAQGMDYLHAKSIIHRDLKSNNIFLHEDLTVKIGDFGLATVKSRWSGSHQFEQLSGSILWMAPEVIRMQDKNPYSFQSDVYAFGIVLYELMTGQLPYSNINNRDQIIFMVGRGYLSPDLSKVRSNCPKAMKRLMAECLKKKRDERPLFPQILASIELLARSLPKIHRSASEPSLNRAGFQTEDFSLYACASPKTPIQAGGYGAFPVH", "test": "Enzymatic BRAF Kinase Activity Assay", "procedure": "Small molecule inhibition of the BRAF kinases was measured using ADP-Glo assay. In the assay, […], resulting in luciferase reaction and luminescent readout with light generated proportional to the relative kinase activity. Compounds diluted in DMSO were used in 10-point, 3-fold dose curve for both assays. Final concentrations of 6 nM BRAF (CarnaBio, Cat. 09-122) or 3 nM RAF1 (CarnaBio, Cat. 09-125) and 30 nM MEK1 substrate (Millipore, Cat. 14-420) were incubated with 3 µM ATP, 10 mM MgCl2, 0.003% Brij-35, 2 mM DTT, 0.05% BSA, 1 mM EGTA, and 50 mM HEPES for 90 minutes at room temp prior to addition of ADP-Glo reagent (Promega, Cat. V9102) for 40 minutes, and detection reagent for 45 minutes. Luminescence was read on an Envision plate reader (PerkinElmer) and percent remaining activity was used to calculate IC50 using a four-parameter fit model using Dotmatics Knowledge Solutions Studies curve fitting (Dotmatics, Bishops Stortford, UK, CM23).", "values": [{"compound": "Cc1cn2cc(-c3cc(NC(=O)c4cnn(C(C)(C)C)c4F)c(F)cc3C)cc(N3CCOCC3)c2n1", "note": "[US11814384, Example 143]", "IC50": "in the range around 5.5 nM"}, {"compound": "Cc1cn2cc(-c3cc(NC(=O)c4cn(C(C)(C)C)c(F)n4)c(F)cc3C)cc(N3CCOCC3)c2n1", "note": "[US11814384, Example 148]", "IC50": "in the range around 5.5 nM"}, {"compound": "CC(C)(C)n1cc(C(=O)Nc2cc(-c3cc(N4CCOCC4)c4nccn4c3)c(Cl)cc2F)nc1F", "note": "[US11814384, Example 151]", "IC50": "in the range around 5.5 nM"}, {"compound": "Cc1cc(F)c(NC(=O)c2cnn(C(C)(C)C)c2F)cc1-c1cc(C2=CCOCC2)c2nccn2c1", "note": "[US11814384, Example 153]", "IC50": "in the range around 5.5 nM"}, {"compound": "Cc1c(-c2cc(N3CCOCC3)c3nccn3c2)cc(NC(=O)c2cnn(C(C)(C)C)c2F)c(F)c1F", "note": "[US11814384, Example 159]", "IC50": "in the range around 5.5 nM"}, {"compound": "Cc1cc(F)c(NC(=O)c2ncn(C(C)(C)C)c2F)cc1-c1cc(N2CCOCC2)c2nccn2c1", "note": "[US11814384, Example 160]", "IC50": "in the range around 5.5 nM"}, {"compound": "Cc1cc(F)c(NC(=O)c2cnn(C(C)(C)C)c2F)cc1-c1cc(N2CCOCC2)n2nccc2c1", "note": "[US11814384, Example 162]", "IC50": "in the range around 5.5 nM"}, {"compound": "Cc1cc(F)c(NC(=O)c2cnn(C34CC(C3)C4)c2)cc1-c1cc(N2CCOCC2)c2nccn2c1", "note": "[US11814384, Example 164]", "IC50": "in the range around 5.5 nM"}, {"compound": "Cc1cc(F)c(NC(=O)c2ccnc(N3CCCC3)c2)cc1-c1cc(N2CCOCC2)c2nccn2c1", "note": "[US11814384, Example 166]", "IC50": "in the range around 5.5 nM"}, {"compound": "Cc1cc(F)c(NC(=O)c2cnn(C(C)(C)C)c2F)cc1-c1cc(N2CC3CCC(C2)O3)c2nccn2c1", "note": "[US11814384, Example 180]", "IC50": "in the range around 5.5 nM"}, {"compound": "Cc1cc(F)c(NC(=O)c2cnn(C(C)(C)C)c2F)cc1-c1cc(N2CCOCC2)c2ncnn2c1", "note": "[US11814384, Example 181]", "IC50": "in the range around 5.5 nM"}, {"compound": "Cc1cc(F)c(NC(=O)c2cnc(C(C)(C)C)o2)cc1-c1cc(N2CCOCC2)c2nccn2c1", "note": "[US11814384, Example 183]", "IC50": "in the range around 5.5 nM"}, {"compound": "Cc1cc(F)c(NC(=O)c2coc(C(C)(C)C)n2)cc1-c1cc(N2CCOCC2)c2nccn2c1", "note": "[US11814384, Example 184]", "IC50": "in the range around 5.5 nM"}, {"compound": "Cc1ccc(NC(=O)c2cnc(C(C)(C)C)o2)cc1-c1cc(N2CCOCC2)c2nccn2c1", "note": "[US11814384, Example 185]", "IC50": "in the range around 5.5 nM"}, {"compound": "Cc1cc(F)c(NC(=O)c2cnn(C(C)(C)C)n2)cc1-c1cc(N2CCOCC2)c2nccn2c1", "note": "[US11814384, Example 186]", "IC50": "in the range around 5.5 nM"}, {"compound": "Cc1cc(F)c(NC(=O)c2ccnc(C34CC(C3)C4)c2)cc1-c1cc(N2CCOCC2)c2nccn2c1", "note": "[US11814384, Example 188]", "IC50": "in the range around 5.5 nM"}, {"compound": "Cc1cc(F)c(NC(=O)c2cnn(C(C)(C)C)c2F)cc1-c1cc(N2CCOCC2)n2ncnc2c1", "note": "[US11814384, Example 189]", "IC50": "in the range around 5.5 nM"}, {"compound": "Cc1cc(F)c(C(=O)Nc2cnn(C(C)(C)C)c2)cc1-c1cc(N2CCOCC2)c2nccn2c1", "note": "[US11814384, Example 204]", "IC50": "in the range around 5.5 nM"}, {"compound": "Cc1cc(F)c(C(=O)Nc2cccc(C(C)(C)C)c2)cc1-c1cc(N2CCOCC2)c2nccn2c1", "note": "[US11814384, Example 205]", "IC50": "in the range around 55 nM"}, {"compound": "Cc1cc(F)c(NC(=O)c2ccnc3c2ccn3C(C)C)cc1-c1cc(N2CCOCC2)c2nccn2c1", "note": "[US11814384, Example 206]", "IC50": "in the range around 5.5 nM"}, {"compound": "Cc1cc(F)c(NC(=O)c2cnn(C(C)(C)C)c2F)cc1-c1cc(N2CCOCC2)c2nnnn2c1", "note": "[US11814384, Example 220]", "IC50": "in the range around 55 nM"}, {"compound": "CC(C)(C)n1ncc(C(=O)Nc2cc(-c3cc(N4CCOCC4)c4nccn4c3)c(Cl)cn2)c1F", "note": "[US11814384, Example 226]", "IC50": "in the range around 5.5 nM"}, {"compound": "Cc1cc(F)c(NC(=O)c2cnn(C(C)(C)C)c2F)cc1-c1cn2ccnc2c(N2CCOCC2)n1", "note": "[US11814384, Example 228]", "IC50": "in the range around 5.5 nM"}, {"compound": "Cc1cc(F)c(NC(=O)c2cc(F)n(C3(C)CC3)c2)cc1-c1cc(N2CCOCC2)c2nccn2c1", "note": "[US11814384, Example 247]", "IC50": "in the range around 55 nM"}, {"compound": "Cc1cc(F)c(C(=O)Nc2cnn(C(C)(C)C)c2F)cc1-c1cc(N2CCOCC2)c2nccn2n1", "note": "[US11814384, Example 260]", "IC50": "in the range around 5.5 nM"}, {"compound": "Cc1cc(F)c(NC(=O)c2ccnc(N(C)C(F)(F)F)c2)cc1-c1cc(N2CCOCC2)c2nccn2c1", "note": "[US11814384, Example 263]", "IC50": "in the range around 5.5 nM"}, {"compound": "Cc1cn2nc(-c3cc(NC(=O)c4cnn(C(C)(C)C)c4F)c(F)cc3C)cc(N3CCOCC3)c2n1", "note": "[US11814384, Example 265]", "IC50": "in the range around 5.5 nM"}, {"compound": "Cc1cn2cc(-c3cc(C(=O)Nc4cnn(C(C)(C)C)c4F)c(F)cc3C)cc(N3CCOCC3)c2n1", "note": "[US11814384, Example 267]", "IC50": "in the range around 5.5 nM"}, {"compound": "Cc1cc(F)c(NC(=O)c2cnn(C(C)(C)C)c2F)cc1-c1cc(N2CCOCC2)c2nc(C)c(F)n2c1", "note": "[US11814384, Example 273]", "IC50": "in the range around 5.5 nM"}, {"compound": "Cc1ccc(NC(=O)c2cnn(C(C)(C)C)c2F)cc1-c1cc(N2CCOCC2)c2nc(C)c(F)n2c1", "note": "[US11814384, Example 274]", "IC50": "in the range around 5.5 nM"}, {"compound": "Cc1nc2cc(-c3cc(NC(=O)c4cnn(C(C)(C)C)c4F)c(F)cc3C)cc(N3CCOCC3)n2n1", "note": "[US11814384, Example 282]", "IC50": "in the range around 55 nM"}, {"compound": "Cc1nc2cc(-c3cc(C(=O)Nc4cnn(C(C)(C)C)c4F)c(F)cc3C)cc(N3CCOCC3)n2n1", "note": "[US11814384, Example 283]", "IC50": "in the range around 5.5 nM"}, {"compound": "Cc1nc2c(N3CCOCC3)cc(-c3cc(C(=O)Nc4cnn(C(C)(C)C)c4F)c(F)cc3C)cn2n1", "note": "[US11814384, Example 285]", "IC50": "in the range around 5.5 nM"}, {"compound": "Cc1nc2cc(-c3cc(NC(=O)c4cnc(C(C)(C)C)o4)c(F)cc3C)cc(N3CCOCC3)n2n1", "note": "[US11814384, Example 291]", "IC50": "in the range around 55 nM"}, {"compound": "Cc1nc2cc(-c3cc(NC(=O)c4coc(C(C)(C)C)n4)c(F)cc3C)cc(N3CCOCC3)n2n1", "note": "[US11814384, Example 292]", "IC50": "in the range around 55 nM"}, {"compound": "Cc1nc2c(N3CCOCC3)cc(-c3cc(NC(=O)c4cnc(C(C)(C)C)o4)c(F)cc3C)cn2n1", "note": "[US11814384, Example 293]", "IC50": "in the range around 5.5 nM"}, {"compound": "Cc1nc2c(N3CCOCC3)cc(-c3cc(NC(=O)c4coc(C(C)(C)C)n4)c(F)cc3C)cn2n1", "note": "[US11814384, Example 294]", "IC50": "in the range around 55 nM"}, {"compound": "Cc1nc2c(N3CCOCC3)cc(-c3cc(NC(=O)c4cnn(C(C)(C)C)n4)c(F)cc3C)cn2n1", "note": "[US11814384, Example 303]", "IC50": "in the range around 5.5 nM"}, {"compound": "Cc1cc(F)c(NC(=O)c2cnc(C(C)(C)C)o2)cc1-c1cc(N2CCOCC2)n2nc(C3CC3)nc2c1", "note": "[US11814384, Example 304]", "IC50": "in the range around 5.5 nM"}, {"compound": "CCc1nc2cc(-c3cc(NC(=O)c4cnc(C(C)(C)C)o4)c(F)cc3C)cc(N3CCOCC3)n2n1", "note": "[US11814384, Example 305]", "IC50": "in the range around 55 nM"}, {"compound": "CCc1nc2cc(-c3cc(C(=O)Nc4cnn(C(C)(C)C)c4F)c(F)cc3C)cc(N3CCOCC3)n2n1", "note": "[US11814384, Example 306]", "IC50": "in the range around 5.5 nM"}, {"compound": "Cc1cc(F)c(C(=O)Nc2cnn(C(C)(C)C)c2F)cc1-c1cc(N2CCOCC2)n2nc(C3CC3)nc2c1", "note": "[US11814384, Example 307]", "IC50": "in the range around 5.5 nM"}, {"compound": "Cc1cc(F)c(C(=O)Nc2cnn(C(C)(C)C)c2F)cc1-c1cc(N2CCOCC2)c2nc(C(C)C)nn2c1", "note": "[US11814384, Example 308]", "IC50": "in the range around 5.5 nM"}, {"compound": "Cc1cc(F)c(C(=O)Nc2cnn(C(C)(C)C)c2F)cc1-c1cc(N2CCOCC2)c2nc(N(C)C)nn2c1", "note": "[US11814384, Example 309]", "IC50": "in the range around 5.5 nM"}, {"compound": "Cc1nc2c(N3CCOCC3)cc(-c3cc(C(=O)Nc4cn(C5(C)CC5)nc4F)c(F)cc3C)cn2n1", "note": "[US11814384, Example 310]", "IC50": "in the range around 5.5 nM"}]}]}
